{
  "source": "patent US9586907B2",
  "about": "“Isothiocyanate compounds, pharmaceutical compositions, and uses thereof” (priority 2006, dated 2017)",
  "key": {"[1]": {"tested_on": "M. tuberculosis W", "assay": "MIC, M. tuberculosis W", "type": "cell-based", "procedure": "(§1) Next, several of the bifunctional ITC compounds were tested for their ability to inhibit the growth of some clinical isolates of Mycobacteria, the results of which are summarized in Table 3 below."}, "[2]": {"tested_on": "M. tuberculosis P", "assay": "MIC, M. tuberculosis P", "type": "cell-based", "procedure": "as §1"}, "[3]": {"assay": "In vivo tolerance in mice", "details": "highest dose, 50 mg/kg"}, "[4]": {"tested_on": "M. intracellularie", "assay": "MIC, M. intracellularie", "type": "cell-based", "details": "M. intracellularie"}, "[5]": {"tested_on": "virus (92TH594)", "assay": "Viral proliferation in PBMC, p24 viral antigen", "type": "cell-based", "details": "for P24 values: PBMC"}, "[6]": {"tested_on": "Aspergillus fumigatus Rit 1", "assay": "Anti-fungal MIC, Aspergillus fumigatus Rit 1", "details": "Aspergillus fumigatus Rit 1"}, "[7]": {"tested_on": "M. bovis BCG", "assay": "microbe, parasite or virus in culture", "type": "cell-based"}, "[8]": {"tested_on": "Candida parapsilosis 22019", "assay": "Anti-fungal MIC, Candida parapsilosis 22019", "details": "Candida parapsilosis 22019"}, "[9]": {"tested_on": "M. tuberculosis CDC1551", "assay": "MIC, M. tuberculosis CDC1551", "type": "cell-based", "procedure": "as §1"}, "[10]": {"tested_on": "Candida crusei 6258^mdr"}, "[11]": {"tested_on": "M. tuberculosis W4", "assay": "MIC, M. tuberculosis W4", "type": "cell-based", "procedure": "as §1"}, "[12]": {"tested_on": "Candida albicans 90030", "assay": "Anti-fungal MIC, Candida albicans 90030", "details": "Candida albicans 90030"}, "[13]": {"tested_on": "M. avium", "assay": "MIC, M. avium", "type": "cell-based", "details": "M. avium"}, "[14]": {"tested_on": "Candida albicans 5108^mdr", "assay": "Anti-fungal MIC, Candida albicans 5108^mdr", "details": "Candida albicans 5108^mdr"}, "[15]": {"tested_on": "Candida albicans 90028", "assay": "Anti-fungal MIC, Candida albicans 90028", "details": "Candida albicans 90028"}, "[16]": {"tested_on": "Aspergillus fumigatus Rit 11", "assay": "Anti-fungal MIC, Aspergillus fumigatus Rit 11", "details": "Aspergillus fumigatus Rit 11"}, "[17]": {"tested_on": "human acute monocytic leukemia cells (THP1 cells)", "assay": "Growth of THP1 cells, MTT metabolic assay", "type": "cell-based", "details": "highest dosage of 32 μg/mL, 24 hours", "procedure": "THP1 cells were either mock-treated (DMSO vehicle alone), or treated with increasing doses of new compounds 37 and 45, from 0 to 32 μg/mL. Cells were incubated in the presence of compound for 24 hours, and subsequently were assayed for total cell viability using an MTT, metabolic assay."}, "[18]": {"tested_on": "Mycobacterium tuberculosis H37Rv strain", "assay": "In vitro infection model, bacterial growth inhibition in infected macrophages", "type": "cell-based", "details": "M. tuberculosis H37Rv; up to 1 μg/mL; Rifampicin control", "description": "Rifampicin was used as a control for this experiment."}, "[19]": {"tested_on": "Cryptococcus neoformans CNH99", "assay": "Anti-fungal MIC, Cryptococcus neoformans CNH99", "details": "Cryptococcus neoformans CNH99"}, "[20]": {"tested_on": "M. tuberculosis 210", "assay": "MIC, M. tuberculosis 210", "type": "cell-based", "procedure": "as §1"}, "[21]": {"tested_on": "M. scrofulaceum", "assay": "MIC, M. scrofulaceum", "type": "cell-based", "details": "M. scrofulaceum"}, "[22]": {"tested_on": "Aspergillus fumigatus Rit 21", "assay": "Anti-fungal MIC, Aspergillus fumigatus Rit 21", "details": "Aspergillus fumigatus Rit 21"}, "[23]": {"tested_on": "M. cansassi", "assay": "MIC, M. cansassi", "type": "cell-based", "details": "M. cansassi"}, "[24]": {"tested_on": "Candida dlabrata 250^mdr", "assay": "Anti-fungal MIC, Candida dlabrata 250^mdr", "details": "Candida dlabrata 250^mdr; MIC determined at 48 hours of growth"}, "[25]": {"tested_on": "Mycobacteria", "type": "cell-based", "details": "Table 3"}, "[26]": {"tested_on": "M. tuberculosis H37Rv", "assay": "MIC, M. tuberculosis H37Rv", "type": "cell-based", "procedure": "as §1"}, "[27]": {"tested_on": "human peritoneal macrophages infected with Mycobacterium tuberculosis H37Rv strain", "assay": "In vitro infection model, cytotoxicity", "details": "up to 1 μg/mL; Rifampicin control"}, "[28]": {"tested_on": "M. tuberculosis AB", "assay": "MIC, M. tuberculosis AB", "type": "cell-based", "procedure": "as §1"}, "[29]": {"tested_on": "M. fortuitum", "assay": "MIC, M. fortuitum", "type": "cell-based", "details": "M. fortuitum"}},
  "note": "Marks after values point to notes of the source that are not given here.",
  "data": [
    {"smiles": "OCCCCCCCCN=C=S", "note": "[Compound 45, HO—(CH2)8—N═C═S]", "values": [
      {"measurement": "MIC", "setting": "[1]", "result": 1, "unit": "µg/mL"},
      {"measurement": "MIC", "setting": "[2]", "result": 2, "unit": "µg/mL"},
      {"measurement": "toxicity in treated mice", "setting": "[3]", "result": "no toxicity was observed"},
      {"measurement": "MIC", "setting": "[4]", "result": 4, "unit": "µg/mL"},
      {"measurement": "difference in antiviral activity with and without preincubation prior to viral infection", "setting": "[5]; Tables 5 and 6 compared", "result": "no detectable difference"},
      {"measurement": "P24 values", "setting": "[5]; compound 2.5 μg/ml, added to the cells after viral infection", "result": 975, "unit": "pg/mL"},
      {"measurement": "P24 values", "setting": "[5]; compound 2.5 μg/ml, added to the cells before viral infection", "result": 960, "unit": "pg/mL"},
      {"measurement": "P24 values", "setting": "[5]; compound 10 μg/ml, added to the cells after viral infection", "result": 7, "unit": "pg/mL"},
      {"measurement": "P24 values", "setting": "[5]; compound 10 μg/ml, added to the cells before viral infection", "result": 6, "unit": "pg/mL"},
      {"measurement": "Anti-Fungal Activity (MIC)", "setting": "[6]", "result": 8, "unit": "µg/mL"},
      {"measurement": "MIC", "setting": "[7]", "result": 0.5, "unit": "µg/mL"},
      {"measurement": "Anti-Fungal Activity (MIC)", "setting": "[8]", "result": 8, "unit": "µg/mL"},
      {"measurement": "MIC", "setting": "[9]", "result": 2, "unit": "µg/mL"},
      {"measurement": "Anti-Fungal Activity (MIC)", "setting": "[10]", "result": 4, "unit": "µg/mL"},
      {"measurement": "MIC", "setting": "[11]", "result": 1, "unit": "µg/mL"},
      {"measurement": "Anti-Fungal Activity (MIC)", "setting": "[12]", "result": 4, "unit": "µg/mL"},
      {"measurement": "MIC", "setting": "[13]", "result": 4, "unit": "µg/mL"},
      {"measurement": "Anti-Fungal Activity (MIC)", "setting": "[14]", "result": 4, "unit": "µg/mL"},
      {"measurement": "Anti-Fungal Activity (MIC)", "setting": "[15]", "result": 8, "unit": "µg/mL"},
      {"measurement": "Anti-Fungal Activity (MIC)", "setting": "[16]", "result": 8, "unit": "µg/mL"},
      {"measurement": "effect on growth of THP1 cells", "setting": "[17]", "result": "not able to affect the growth of THP1 cells"},
      {"measurement": "growth inhibitory activity in infected macrophages", "setting": "[18]", "result": "comparabale with the inhibition observed for Rifampicin"},
      {"measurement": "Anti-Fungal Activity (MIC)", "setting": "[19]", "result": "<1", "unit": "µg/mL"},
      {"measurement": "MIC", "setting": "[20]", "result": 1, "unit": "µg/mL"},
      {"measurement": "MIC", "setting": "[21]", "result": 8, "unit": "µg/mL"},
      {"measurement": "Anti-Fungal Activity (MIC)", "setting": "[22]", "result": 8, "unit": "µg/mL"},
      {"measurement": "MIC", "setting": "[23]", "result": 1, "unit": "µg/mL"},
      {"measurement": "Anti-Fungal Activity (MIC)", "setting": "[24]", "result": "4** μg/mL"},
      {"measurement": "activity against Mycobacteria (in words)", "setting": "[25]", "result": "highest activity"},
      {"measurement": "MIC", "setting": "[26]", "result": 1, "unit": "µg/mL"},
      {"measurement": "cytotoxicity in infected macrophages", "setting": "[27]", "result": "low cytotoxicity, similar to Rifampicin"},
      {"measurement": "MIC", "setting": "[28]", "result": 2, "unit": "µg/mL"},
      {"measurement": "MIC", "setting": "[29]", "result": 4, "unit": "µg/mL"}
    ]}
  ]
}
